# From US6939882B1 (priority 1999, dated 2005)
# Legend:
# Leptosphaeria nodorum = details: in vivo; note: key: 1 is little or no control; 2 is moderate control; 3 is good to total control
# Phytophthora infestans = assay type: in vivo; details: concentration of 500 ppm (w/v) or less, spray or stem base drench
# Plasmopara viticola = details: in vivo; note: key: 1 is little or no control; 2 is moderate control; 3 is good to total control
# Pyricularia oryzae = assay type: in vivo; details: concentration of 500 ppm (w/v) or less, spray or stem base drench
Compound,score of disease control (degree of infection visually estimated) (Plasmopara viticola),score of disease control (degree of infection visually estimated) (Pyricularia oryzae),also measured
"CC(NCc1ncc(C(F)(F)F)cc1Cl)c1ccc(F)c(F)c1 (stereo not drawn) [Compound 23, N-{[3-Chloro-5-(trifluoromethyl)-2-pyridyl]methyl}-N-[1-(3,4-difluorophenyl)-ethyl]amine]",,,score of disease control (degree of infection visually estimated) (Leptosphaeria nodorum): 2
FC(F)(F)c1cnc(ON=Cc2cccc3ccccc23)c(Cl)c1 [Compound 933],,,score of disease control (degree of infection visually estimated) (Leptosphaeria nodorum): 2
O=C(NNc1ncc(C(F)(F)F)cc1Cl)c1c(F)cccc1Cl [Compound 126],2,2,score of disease control (degree of infection visually estimated) (Phytophthora infestans): 2; score of disease control (degree of infection visually estimated) (Leptosphaeria nodorum): 2
"N#CC(=NOc1ncc(C(F)(F)F)cc1Cl)c1c(Cl)cccc1Cl (single isomer, unassigned) [Compound 937]",,2,
"CC1CCc2ccccc2C1=NOc1ncc(C(F)(F)F)cc1Cl (stereo not drawn) [Compound 1101, 2-Methyl-1,2,3,4-tetrahydro-1-naphthalenone O-1-[3-chloror-5-(trifluoromethyl)-2-pyridyl]oxime]",,,score of disease control (degree of infection visually estimated) (Phytophthora infestans): 2
COc1ccc(OC)c(CNCc2ncc(C(F)(F)F)cc2Cl)c1 [Compound 49],,,score of disease control (degree of infection visually estimated) (Phytophthora infestans): 2
CCC(=NOc1ncc(C(F)(F)F)cc1Cl)c1ccc(Cl)cc1Cl [Compound 953],,,score of disease control (degree of infection visually estimated) (Phytophthora infestans): 2
CC(=NOc1ncc(C(F)(F)F)cc1Cl)c1cccs1 [Compound 913],,2,
COc1ccc(C=NOc2ncc(C(F)(F)F)cc2Cl)cc1 [Compound 914],2,,
O=C(NNc1ncc(C(F)(F)F)cc1Cl)c1c(Cl)cccc1Cl [Compound 102],2,,score of disease control (degree of infection visually estimated) (Phytophthora infestans): 2
Cc1ccc(CNC(=O)c2ncc(C(F)(F)F)cc2Cl)cc1 [Compound 215],2,,score of disease control (degree of infection visually estimated) (Phytophthora infestans): 2
FC(F)(F)c1cnc(ON=C(c2ccc(Cl)cc2)c2ccc(Cl)cc2)c(Cl)c1 [Compound 958],2,,
"N#CC(=NOc1ncc(C(F)(F)F)cc1Cl)c1c(Cl)cccc1Cl (single isomer, unassigned) [Compound 938]",,2,
FC(F)(F)c1cnc(ON=Cc2ccncc2)c(Cl)c1 [Compound 902],,,score of disease control (degree of infection visually estimated) (Phytophthora infestans): 2
CC(=NOc1ncc(C(F)(F)F)cc1Cl)c1cccn1C [Compound 906],,2,score of disease control (degree of infection visually estimated) (Leptosphaeria nodorum): 2
O=C(NOc1ncc(C(F)(F)F)cc1Cl)c1ccccc1Cl [Compound 1013],2,,
O=[N+]([O-])c1ccc(CNCc2ncc(C(F)(F)F)cc2Cl)cc1 [Compound 51],,,score of disease control (degree of infection visually estimated) (Leptosphaeria nodorum): 2
CC(NC(=O)c1ncc(C(F)(F)F)cc1Cl)c1ccc(Br)cc1 (stereo not drawn) [Compound 208],,,score of disease control (degree of infection visually estimated) (Leptosphaeria nodorum): 2
"O=C(C=Cc1ncc(C(F)(F)F)cc1Cl)c1ccccc1[N+](=O)[O-] [Compound 601, 3-[3-Chloro-5-(trifluoromethyl)-2-pyridyl]-1-(2-nitrophenyl)-2-propen-1-one]",2,,score of disease control (degree of infection visually estimated) (Phytophthora infestans): 2
CCOC(=O)C(c1ncc(C(F)(F)F)cc1Cl)N(Cc1ccccc1Cl)C(=O)C(=O)OC (stereo not drawn) [Compound 9],2,2,
COc1ccc2c(c1)C(=NOc1ncc(C(F)(F)F)cc1Cl)CCC2 [Compound 1102],,,score of disease control (degree of infection visually estimated) (Phytophthora infestans): 2

Compound,score of disease control (degree of infection visually estimated) (Plasmopara viticola),score of disease control (degree of infection visually estimated) (Pyricularia oryzae),also measured
N#CC(=NOc1ncc(C(F)(F)F)cc1Cl)c1ccccc1 [Compound 926],,,score of disease control (degree of infection visually estimated) (Leptosphaeria nodorum): 2
CCOC(=O)C(c1ncc(C(F)(F)F)cc1Cl)N(Cc1ccccc1Cl)C(C)=O (stereo not drawn) [Compound 7],2,2,
CC(=NOc1ncc(C(F)(F)F)cc1Cl)c1ccccc1Cl [Compound 901],2,2,
CCC(=NOc1ncc(C(F)(F)F)cc1Cl)c1ccccc1 [Compound 922],,2,
CC(=NOc1ncc(C(F)(F)F)cc1Cl)c1ccc(C)cc1C [Compound 915],2,,
CN1C(=O)C(=NOc2ncc(C(F)(F)F)cc2Cl)c2ccccc21 [Compound 1109],,,score of disease control (degree of infection visually estimated) (Leptosphaeria nodorum): 2
COc1ccccc1C=NOc1ncc(C(F)(F)F)cc1Cl [Compound 921],2,,
N#CC(=NOc1ncc(C(F)(F)F)cc1Cl)c1ccccc1C#N [Compound 939],,2,
Cc1cnc(C(=O)NOc2ncc(C(F)(F)F)cc2Cl)cn1 [Compound 1001],2,2,
CCOC(=O)C(c1ncc(C(F)(F)F)cc1Cl)N(Cc1ccc2c(c1)OCO2)C(=O)C(=O)OC (stereo not drawn) [Compound 12],2,,
CC(C)(C)C(=NOc1ncc(C(F)(F)F)cc1Cl)c1ccccn1 [Compound 912],,,score of disease control (degree of infection visually estimated) (Phytophthora infestans): 2
CC(NC(=O)c1ncc(C(F)(F)F)cc1Cl)c1c(F)cccc1F (stereo not drawn) [Compound 202],,,score of disease control (degree of infection visually estimated) (Phytophthora infestans): 2
CC(NCc1ncc(C(F)(F)F)cc1Cl)c1ccccc1Cl (stereo not drawn) [Compound 17],,2,
CN(NC(=O)c1c(Cl)cccc1Cl)c1ncc(C(F)(F)F)cc1Cl [Compound 109],2,,
CC(NC(=O)c1ncc(C(F)(F)F)cc1Cl)c1ccc(Cl)cc1 (stereo not drawn) [Compound 207],,,score of disease control (degree of infection visually estimated) (Leptosphaeria nodorum): 2
Cc1nc(C)c(C(=O)NOc2ncc(C(F)(F)F)cc2Cl)s1 [Compound 1007],,,score of disease control (degree of infection visually estimated) (Leptosphaeria nodorum): 2
O=[N+]([O-])c1cccc(C=NOc2ncc(C(F)(F)F)cc2Cl)c1 [Compound 923],,2,score of disease control (degree of infection visually estimated) (Leptosphaeria nodorum): 2
CC(=NOc1ncc(C(F)(F)F)cc1Cl)c1ccccc1 [Compound 927],,,score of disease control (degree of infection visually estimated) (Phytophthora infestans): 2
CC(=NOc1ncc(C(F)(F)F)cc1Cl)c1ccccc1C [Compound 907],2,2,
FC(F)(F)c1cnc(ON=Cc2ccccc2Cl)c(Cl)c1 [Compound 929],,,score of disease control (degree of infection visually estimated) (Leptosphaeria nodorum): 2
